Earlier results on one molecule are cited in patent publication US11793953B2, “Inhalers and related methods” (Norton (Waterford) Limited, priority 2017, dated 2023).

Each structure is given as a SMILES string.

`FCC(F)(F)F` [HFA134a, 1,1,1,2-tetrafluoroethane]: the surface tension entry (as liquid at 25° C.) is listed as “about 8 mN/m”. Moreover, for the setting “at 20° C.”, the vapor pressure is 572 kpa.
